Assay [1] relates to erytroid leukemia cell line K-562. Put plainly: Calcein AM cytotoxicity assay, K-562. Conditions: Homo sapiens, K562, 72 hours. The format is cell-based, human. The text has this: (§1) Absence of toxic effects against mammalian (especially human) cell lines in a wide concentration range is one of the requirements on compounds intended for use in agriculture. Because toxic compounds negatively influence metabolic processes in cells, many standard cytotoxicity assays are based on measurement of metabolisation rate of various artificial substrates. Resulting product is then quantified e.g. by means of spectrometry. The assays can be easily modified for use in 96-well plates. For evaluation of cytotoxic effect of the novel substituted 6-(alkylbenzylamino)purine derivatives of this invention, a microtiter assay based on quantification of metabolisation of Calcein AM was used. The assay is widely used in drug screening programs and in chemosensitivity testing. In live cells, Calcein AM is enzymatically hydrolysed and accumulation of resulting calcein is manifested by green fluorescence.
(§2) The cells were maintained in Nunc/Corning 80 cm^2 plastic tissue culture flasks and cultured in cell culture medium (DMEM with 5 g/l glucose, 2 mM glutamine, 100 U/ml penicillin, 100 μg/ml streptomycin, 10% fetal calf serum and sodium bicarbonate).
(§3) The cell suspensions were prepared and diluted according to the particular cell type and the expected target cell density (10^4 cells per well based on cell growth characteristics) and pippetted (80 μl) into 96-well plates. Inoculates were allowed a pre-incubation period of 24 hours at 37° C., 100% humidity and 5% CO2 for stabilisation. Tested compounds were added in total volume of 20 μl of water at time zero. Usually, test compound was evaluated at six 3-fold dilutions. In routine testing, the highest concentration tested was 100 μM, the eventual changes depended on physico-chemical characteristics of the respective compound. All drug concentrations were tested in triplicates. Incubations of cells with the test compounds lasted for 72 hours at 37° C., in 5% CO2 atmosphere and 100% humidity. At the end of incubation period Calcein AM (Molecular Probes) in PBS was added into final concentration of 1 μg/ml. After another 1 hour of incubation fluorescence (FD) was measured with the Labsystem FIA Reader Fluoroscan Ascent (UK). Growth inhibition (GI) was estimated using the following equitation: GI=(mean FDdrug exposed wells−mean FDblank)/(mean FDcontrol wells−mean FDblank)×100%.

Assay [2] deals with melanoma cell line G-361. The assay is described as follows: Calcein AM cytotoxicity assay, G-361. The following applies: Homo sapiens, G-361, 72 hours. The format is cell-based, human.
From the text: as §1, §2, §3

Assay [3] relates to osteosarcoma cell line HOS. The assay is described as follows: Calcein AM cytotoxicity assay, HOS. The following applies: Homo sapiens, 72 hours. The format is cell-based, human.
From the text: as §1, §2, §3

The target in assay [4] is T1, CRE1/AHK4 (Arabidopsis thaliana, UniProt Q9C5U0).
T1 construct: expressed in transfected cells; host or cells: Escherichia coli KMI001, plasmid pIN-III-AHK4
Put plainly: Activation of cytokinin receptor CRE1/AHK4 in E. coli KMI001 (β-galactosidase reporter). The format is cell-based. Conditions: for EC50 CRE1/AHK4 (activation of cytokinin receptor): E. coli KMI001 pIN-III-AHK4, 17 h incubation, n.i. means without interaction. The procedure: Escherichia coli strains KMI001 harbouring the plasmid pIN-III-AHK4 or pSTV28-AHK3 were grown overnight at 25° C. in M9 media enriched with 0.1% casamino acids to OD600˜1. The preculture was diluted 1:600 in 1 ml M9 medium containing 0.1% casamino acids and 1 μl stock solution of either the tested compound (10^−7 M−5×10^−5 M) or solvent control (DMSO, ethanol, methanol) were added. The cultures were further grown at 25° C. in microtiter plate, 200 μl per well. […] The cultures were centrifuged and 50 μl aliquots of the supernatant were transferred to microtiter plate containing 2 μl 50 mM 4-methyl umbelliferyl galactoside which was subsequently incubated for 1 h at 37° C. The reaction was stopped by adding 100 μl 0.2 M Na2CO3. Fluorescence was measured using a Fluoroscan Ascent (Labsystems, Finland) at the excitation and emission wavelengths of 365 and 460 nm, respectively. The OD600 of remaining culture was determined and β-galactosidase activity was calculated as nmol 4-methylumbelliferone×OD600^−1×h^−1.
The EC50 value, the compound concentration activating the receptor to 50%, was calculated from the obtained dose response curves. The compound functioning as cytokinin antagonists should not activate cytokinin signalling pathway. The values shown in Table 2 are means of three replicates and the entire test was repeated at least twice.

The subject of assay [5] is human diploid fibroblasts BJ. Put plainly: Calcein AM cytotoxicity assay, BJ. Type of assay: cell-based. Conditions: Homo sapiens, Fibroblast, 72 hours.
From the text: as §1, §2, §3

Assay [6] relates to cytokinin-dependent tobacco callus Nicotiana tabacum L. cv. Wisconsin 38. Put plainly: Cytokinin-dependent tobacco callus bioassay. The format is cell-based. The following applies: for activity (%) [10^−6 mol · l^−1 BA = 100%]: at concentration with highest activity, n.a. means inactive; for concentration with highest activity: callus fresh weight after four weeks. Here is the method: Stimulatory effect of newly prepared derivatives was tested using cytokinin-dependent tobacco callus. The cytokinin-dependent tobacco callus Nicotiana tabacum L. cv. Wisconsin 38 was maintained at 25° C. in darkness on modified MS medium, containing per 1 liter: 4 μmol of nicotinic acid, 2.4 μmol of pyridoxine hydrochloride, 1.2 μmol of thiamine, 26.6 μmol of glycine, 1.37 μmol of glutamine, 1.8 μmol of myo-inositol, 30 g of sucrose, 8 g of agar, 5.37 μmol of NAA and 0.5 μmol of the compound tested. Subcultivation was carried out every three weeks. Fourteen days before the bioassay, the callus tissue was transferred to the media without 6-benzylaminopurine. The biological activity was determined from the increase of the fresh callus weight after four weeks of cultivation. Five replicates were prepared for each concentration of the compound tested and the entire test was repeated twice. […] The compounds to be tested were dissolved in dimethylsulfoxide (DMSO) and the solution brought up to 10^−3M with distilled water. This stock solution was further diluted with the respective media used for the biotest to a concentration ranging from 10^−8M to 10^−4M.
From the obtained data, the concentration with the highest activity was selected for each compound tested. Relative activity of the compound at this concentration was calculated (Table 3). The activity obtained for 10^−6 M of the control substance 6-benzylaminopurine was postulated as 100% biological activity. […]

Assay [7] relates to wild-type Arabidopsis seeds. The assay is described as follows: Germination of Arabidopsis seeds. Type of assay: in vivo. Here is the method:
Early germination of wild-type Arabidopsis seeds cultivated on MS medium containing indicated concentrations of compound 8 after replacement from dark to white light (16 h light/8 hours dark).
Subsequent testing confirmed positive effect of the compound 8 on germination. After sowing and pretreatment in dark at 4° C., seeds were transferred to light and ambient temperature. After 30 hours more than 60% of seeds sown on medium containing 1 nM compound 8 were germinating, which was twice as much as in the case of control sown on compound 8 free medium. The number of germinating seeds was further enhanced with higher concentration of compound 8 and 80% of seeds were germinated when 10 nM compound 8 was present in the medium (FIG. 6).

The subject of assay [8] is Arabidopsis seedlings (wild-type, receptor double mutants). The assay is described as follows: Primary root length of Arabidopsis seedlings. The format is in vivo. Conditions: 1 μM. The procedure:
FIG. 5 Effect of compound 8 on primary root length of Arabidopsis seedlings. Increase in the length of the primary roots observed in ahk2 ahk3 double mutant seedlings (6 DAG) grown on medium containing 1 μM compound 8.
However, when 1 μM compound 8 was applied to the growth media of ahk2 ahk3 double mutants, significant increase (about 15%) in the length of the primary roots was observed compared to untreated control (FIG. 5).

Usually GI50 stands for the concentration giving 50% growth inhibition. As usually defined, the EC50 is the concentration that produces a half-maximal response. High values mean weaker potency, low ones greater potency.

Molecules are shown by their SMILES. Bounds are passed on as bounds.

T1 sequence (Q9C5U0 whole entry): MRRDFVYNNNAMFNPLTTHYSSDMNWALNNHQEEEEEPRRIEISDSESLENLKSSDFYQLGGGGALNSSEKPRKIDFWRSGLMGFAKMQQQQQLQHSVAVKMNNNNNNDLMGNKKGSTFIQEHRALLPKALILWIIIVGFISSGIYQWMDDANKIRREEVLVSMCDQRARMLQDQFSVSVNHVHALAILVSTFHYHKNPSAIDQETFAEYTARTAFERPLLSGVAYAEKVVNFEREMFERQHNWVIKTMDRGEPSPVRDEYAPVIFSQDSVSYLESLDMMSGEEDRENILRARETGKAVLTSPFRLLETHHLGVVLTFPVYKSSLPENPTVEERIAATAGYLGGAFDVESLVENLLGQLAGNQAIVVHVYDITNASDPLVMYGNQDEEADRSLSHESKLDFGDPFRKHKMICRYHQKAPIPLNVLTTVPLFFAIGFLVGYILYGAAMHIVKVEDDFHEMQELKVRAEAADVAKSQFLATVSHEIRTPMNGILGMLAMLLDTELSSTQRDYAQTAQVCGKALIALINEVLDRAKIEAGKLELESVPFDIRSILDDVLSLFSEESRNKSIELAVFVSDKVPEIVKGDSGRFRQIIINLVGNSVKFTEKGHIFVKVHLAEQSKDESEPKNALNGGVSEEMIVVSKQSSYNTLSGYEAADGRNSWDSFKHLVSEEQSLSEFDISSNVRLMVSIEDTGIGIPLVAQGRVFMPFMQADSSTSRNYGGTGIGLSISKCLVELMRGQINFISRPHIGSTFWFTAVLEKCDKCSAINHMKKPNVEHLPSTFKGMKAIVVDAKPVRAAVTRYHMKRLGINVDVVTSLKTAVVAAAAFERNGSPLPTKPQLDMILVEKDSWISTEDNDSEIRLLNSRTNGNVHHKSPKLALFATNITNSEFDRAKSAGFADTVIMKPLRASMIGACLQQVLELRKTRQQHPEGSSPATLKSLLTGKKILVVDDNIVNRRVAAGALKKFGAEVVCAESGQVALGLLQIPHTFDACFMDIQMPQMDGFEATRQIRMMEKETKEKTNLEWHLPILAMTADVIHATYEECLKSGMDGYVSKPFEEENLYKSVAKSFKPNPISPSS

Consider `Cc1ccc(O)c(CNc2ncnc3nc[nH]c23)c1` [Compound 10, 6-(2-hydroxy-5-methylbenzylamino)purine], for which the GI50 in assay [1], in assay [2], in assay [3] and in assay [5] was above 100 µM each time. In assay [4], the “EC50 CRE1/AHK4 (activation of cytokinin receptor)” value is on record as “n.i”. Besides, the “activity (%) [10^−6 mol · l^−1 BA = 100%]” value (from here on “activity (%)”) in assay [6] is recorded as 35 (±8) %. In assay [6], the “concentration with highest activity” value is given as 10^−4 mol.l^−1.

Take `Cc1cccc(CNc2ncnc3nc[nH]c23)c1O` [Compound 8, 6-(2-hydroxy-3-methylbenzylamino)purine]: in assay [7] (1 nM in medium, after 30 hours in light), the germinating seeds result is given as “more than 60%”. This compound also registered a germinated seeds in assay [7] (10 nM in medium) of 80%. The GI50 in assay [1], in assay [2], in assay [3] and in assay [5] was above 50 µM each time. Moreover, in assay [8] (ahk2 ahk3 double mutants, 6 DAG), the “increase in the length of the primary roots compared to untreated control” value is given as “about 15%”. Also, the “EC50 CRE1/AHK4 (activation of cytokinin receptor)” value in assay [4] is on record as “n.i”. Besides, in assay [6], the “activity (%)” value is given as 2 (±2) %. Further, in assay [6], the “concentration with highest activity” value was 10^−4 mol.l^−1.

Regarding `c1ccc(CNc2ncnc3nc[nH]c23)cc1` [6-(benzylamino)purine], the GI50 in assay [1], in assay [2], in assay [3] and in assay [5] was above 100 µM in each case. Also, the “elongation of the primary root, wild-type seedlings” value in assay [8] (wild-type) is recorded as “almost completely inhibited”. This compound yielded an EC50 in assay [4] of 19.7 µM. In addition, the “activity (%)” value in assay [6] stood at 100%. Further, the “concentration with highest activity” value in assay [6] is recorded as 10^−6 mol.l^−1.
